Read-outs that look alike come from different tables or passages of the source. One block for each molecule: values may come before it.
Columns and labels:
[1] = target: T1, FLAG-KDM5A (Homo sapiens, UniProt P29375); assay: AlphaScreen screen of 8,861 compounds for KDM5A inhibitors; type: biochemical; conditions: 20 μM compound, threshold ~30% inhibition
T1 construct: Sf21 insect cells were infected with baculovirus to express full-length FLAG-KDM5A; made in house; host or cells: Sf21 insect cells (baculovirus)
From the text: The screen (see schematic in Figure 2A) included 8,861 compounds from selected small molecule libraries, including drugs approved for use in the clinic and diverse collections of compounds representing broad pharmacophore diversity and bioavailability. […] An inhibition threshold of three standard deviations (about 30% inhibition) identified 257 compounds. A counter-screen was used to eliminate any compounds that interfered with the assay itself by detecting the luminescent signal in the presence of the compound and positive control H3K4me2 peptide. The counter-screen validated 170 compounds. We chose 48 compounds from this list for dose-response analysis, including 42 of the top 44 compounds with the highest potency at 20 μM and 6 compounds with drug-like structures.
8,861 compounds from the ChemBridge MW-Set, ChemBridge DIVERSet, MicroSource Gen-Plus, MicroSource Pure Natural Products, NIH Clinical Collection, and Enzo Epigenetics libraries were screened for inhibition of FLAG-KDM5A demethylase activity. Compounds were dissolved in DMSO and added at 20 μM to 384-well white plates (Corning 3574) containing 64 nM bio-H3K4me3 peptide in demethylase buffer prior to addition of 13 nM FLAG-KDM5A. Hits were selected at a threshold of three standard deviations (~30% inhibition). A counter-screen was performed with the hits to eliminate any non-specific compounds. For this, 20 μM compounds were added to 64 nM bio-H3K4me2 peptide in demethylase buffer with no enzyme. Any hits that interfered with the positive signal detection were eliminated. Dose-response curves were performed on selected hits using 0.1–11 μM of compound. Further validation of top hits was performed using 5 μM of each compound or a dose-response curve using 0.05–50 μM of the compound.

[2] = target: T2, full-length FLAG-KDM5A (Homo sapiens, UniProt P29375); assay: AlphaScreen KDM5A demethylation assay; type: biochemical; conditions: for Km: cofactor of KDM5A demethylation, 24 nM FLAG-KDM5A, read-out: average apparent Km
T2 construct: Sf21 insect cells were infected with baculovirus to express full-length FLAG-KDM5A; made in house; host or cells: Sf21 insect cells (baculovirus)
From the text: AlphaScreen technology (PerkinElmer) was utilized to perform a screen for small molecule inhibitors of KDM5A. The assay was comprised of two steps, a demethylation reaction followed by detection of the product. A biotinylated H3K4me3 peptide was used as substrate in the demethylation reaction with KDM5A in the presence or absence of small molecule inhibitors. The presence of peptide product (H3K4me1/2) was detected using a product-specific antibody and beads. For this, acceptor beads coated in protein A bound to the antibody, which recognized the peptide product. Donor beads coated in streptavidin bound biotin on the peptide substrate. If the demethylation reaction occurred, the beads were in very close proximity and laser excitation of the donor beads at 680nm caused a transfer of energy in the form of reactive singlet oxygen, resulting in emission by the acceptor beads between 520–620 nm ([30, 31], Figure 1A). The luminescent signal detected was a proxy for the amount of demethylation that occurred.
Reactions were carried out for 1 hour, or were stopped by addition of 30 mM EDTA every 5 minutes for determining enzyme kinetics. Km values were calculated using the Michaelis-Menten non-linear regression analysis on GraphPad Prism 6.0 software. The concentration of DMSO in demethylation reactions was 0.05%. For reactions with catalase, catalase (Sigma C30) or an equal volume of dilution buffer was added to the peptide-containing buffer before addition of the demethylase. The final concentration of catalase in the reactions was 0.01 mg/ml.
(§1) The AlphaScreen general IgG (protein A) detection kit from PerkinElmer Life Sciences was used as described previously. The luminescence emission was recorded at 570 nm using the AlphaScreen optic module on a Pherastar (BMG Labtech) or Envision (PerkinElmer Life Sciences) microplate reader.
IC50 values were calculated by log transformation and non-linear regression log(inhibitor) versus response(three parameters) using Graphpad Prism 6.0 software.

[3] = tested on: H3K4 methylation in MCF7 cells; assay: Western blot of global H3K4 methylation, MCF7; type: cell-based, human; conditions: 48 hr
Protocol: (§2) Cells were lysed as described previously. Histones were separated by centrifugation, resuspended in Laemmeli buffer, and sonicated. Protein concentration of cell lysates was measured by Bradford assay. Samples in Laemmeli buffer were boiled 10 minutes at 95°C and loaded onto 7% (whole cell lysates) or 18% (histones) SDS-PAGE gels. Membranes were blocked in 4% non-fat milk in Tris-buffered saline with 0.05% Tween (TBS-T) and incubated with primary antibodies in the same buffer or 5% bovine serum albumin in TBS-T overnight at 4°C. Membranes were incubated with secondary anti-rabbit or anti-mouse antibodies for one hour at room temperature. Blots were visualized by Thermo Scientific Pierce ECL Western Blotting Substrate (32106) or EMD Millipore Immobilon Western Chemiluminescent HRP Substrate (WBKLS0100) on film. Signal was quantified using ImageJ software.

[4] = target: T3, FLAG-KDM6B (1043-1682) (JMJD3) (Homo sapiens, UniProt O15054); assay: AlphaScreen KDM6B demethylation assay; type: biochemical
T3 construct: FLAG-KDM6B (1043-1682) was purchased from BPS Bioscience (50115); FLAG (N); purchased BPS Bioscience 50115
Protocol: (§3) Histone demethylase assays were performed as described previously, with the exception of all enzyme reactions containing 125 μM α-KG. Enzymes were used at the following approximate concentrations in validation experiments, chosen based on their activity in AlphaScreen assays: 19 nM FLAG-KDM5A, 15 nM FLAG-KDM5B, 6 nM FLAG-KDM5C, 29 nM His-FLAG-KDM6A, and 16 nM FLAG-KDM6B. 24 nM FLAG-KDM5A was used for Km determination experiments. Reactions were carried out for 1 hour, or were stopped by addition of 30 mM EDTA every 5 minutes for determining enzyme kinetics. Km values were calculated using the Michaelis-Menten non-linear regression analysis on GraphPad Prism 6.0 software. The concentration of DMSO in demethylation reactions was 0.05%. For reactions with catalase, catalase (Sigma C30) or an equal volume of dilution buffer was added to the peptide-containing buffer before addition of the demethylase. The final concentration of catalase in the reactions was 0.01 mg/ml.
as §1

[5] = target: T4, FLAG-KDM5B (Homo sapiens, UniProt Q9UGL1); assay: AlphaScreen KDM5B demethylation assay; type: biochemical
T4 construct: Full-length FLAG-KDM5B, FLAG-KDM5C, and His-FLAG-KDM6A production was detailed previously; FLAG (N); made in house
Protocol: as §3, §1

[6] = target: T5, FLAG-KDM5C (Homo sapiens, UniProt P41229); assay: AlphaScreen KDM5C demethylation assay; type: biochemical
T5 construct: Full-length FLAG-KDM5B, FLAG-KDM5C, and His-FLAG-KDM6A production was detailed previously; FLAG (N); made in house
Protocol: as §3, §1

[7] = target: T6, His-FLAG-KDM6A (UTX) (Homo sapiens, UniProt O15550); assay: AlphaScreen KDM6A demethylation assay; type: biochemical
T6 construct: Full-length FLAG-KDM5B, FLAG-KDM5C, and His-FLAG-KDM6A production was detailed previously; His (N); FLAG (N); made in house
Protocol: as §3, §1

[8] = tested on: H3K4 methylation in HeLa cells; assay: Western blot of global H3K4 methylation, HeLa; type: cell-based, human; conditions: HeLa, 48 hr
Protocol: as §2

[9] = target: FLAG-tagged full-length KDM5A (lysine demethylase 5A) (UniProt P29375)
FLAG-tagged full-length KDM5A (lysine demethylase 5A), sequence (P29375 whole entry): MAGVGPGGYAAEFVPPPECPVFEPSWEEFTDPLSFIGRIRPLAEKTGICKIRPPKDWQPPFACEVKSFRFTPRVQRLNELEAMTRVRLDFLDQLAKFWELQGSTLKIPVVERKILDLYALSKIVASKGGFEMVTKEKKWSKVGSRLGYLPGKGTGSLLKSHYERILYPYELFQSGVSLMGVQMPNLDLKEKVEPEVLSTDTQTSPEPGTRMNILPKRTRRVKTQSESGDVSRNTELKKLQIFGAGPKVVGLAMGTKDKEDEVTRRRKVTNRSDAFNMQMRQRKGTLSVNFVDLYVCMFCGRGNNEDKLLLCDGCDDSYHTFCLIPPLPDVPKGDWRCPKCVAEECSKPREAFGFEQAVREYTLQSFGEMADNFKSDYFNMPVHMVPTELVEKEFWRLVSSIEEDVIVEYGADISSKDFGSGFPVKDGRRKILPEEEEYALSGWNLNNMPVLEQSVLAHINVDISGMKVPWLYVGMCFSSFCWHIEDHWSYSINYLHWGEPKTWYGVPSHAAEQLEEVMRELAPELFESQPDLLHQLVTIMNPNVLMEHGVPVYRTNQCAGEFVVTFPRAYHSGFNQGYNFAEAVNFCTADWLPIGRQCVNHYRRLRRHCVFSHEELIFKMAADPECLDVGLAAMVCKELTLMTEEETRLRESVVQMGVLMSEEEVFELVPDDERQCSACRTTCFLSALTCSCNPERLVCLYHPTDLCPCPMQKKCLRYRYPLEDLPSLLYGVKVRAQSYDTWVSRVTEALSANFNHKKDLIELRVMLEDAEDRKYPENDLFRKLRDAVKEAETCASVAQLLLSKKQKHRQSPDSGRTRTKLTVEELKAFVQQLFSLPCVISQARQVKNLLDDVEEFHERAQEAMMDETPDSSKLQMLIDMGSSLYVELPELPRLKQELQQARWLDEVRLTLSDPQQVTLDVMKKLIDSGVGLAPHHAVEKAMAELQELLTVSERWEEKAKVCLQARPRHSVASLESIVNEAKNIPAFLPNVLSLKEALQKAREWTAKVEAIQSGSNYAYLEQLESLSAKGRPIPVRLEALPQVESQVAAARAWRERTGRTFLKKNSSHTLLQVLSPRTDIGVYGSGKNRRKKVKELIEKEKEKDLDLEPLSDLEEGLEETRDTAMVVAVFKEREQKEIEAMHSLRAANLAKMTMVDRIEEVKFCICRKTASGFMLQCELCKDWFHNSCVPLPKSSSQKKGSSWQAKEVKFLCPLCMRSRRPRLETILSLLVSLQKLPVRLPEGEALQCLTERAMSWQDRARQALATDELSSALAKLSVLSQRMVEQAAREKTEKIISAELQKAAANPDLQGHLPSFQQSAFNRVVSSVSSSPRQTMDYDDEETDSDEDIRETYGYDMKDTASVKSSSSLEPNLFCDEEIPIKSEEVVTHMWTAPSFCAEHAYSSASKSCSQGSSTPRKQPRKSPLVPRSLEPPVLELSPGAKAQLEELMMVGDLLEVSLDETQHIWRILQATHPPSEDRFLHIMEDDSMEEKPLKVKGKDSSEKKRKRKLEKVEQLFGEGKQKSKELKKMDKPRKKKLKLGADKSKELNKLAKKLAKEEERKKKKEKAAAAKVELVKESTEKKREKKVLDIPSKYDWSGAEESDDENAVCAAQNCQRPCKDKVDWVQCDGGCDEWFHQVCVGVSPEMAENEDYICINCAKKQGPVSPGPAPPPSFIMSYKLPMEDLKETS

T2 sequence (P29375 whole entry): as above
T1 sequence (P29375 whole entry): as above
T5 sequence (P41229 whole entry): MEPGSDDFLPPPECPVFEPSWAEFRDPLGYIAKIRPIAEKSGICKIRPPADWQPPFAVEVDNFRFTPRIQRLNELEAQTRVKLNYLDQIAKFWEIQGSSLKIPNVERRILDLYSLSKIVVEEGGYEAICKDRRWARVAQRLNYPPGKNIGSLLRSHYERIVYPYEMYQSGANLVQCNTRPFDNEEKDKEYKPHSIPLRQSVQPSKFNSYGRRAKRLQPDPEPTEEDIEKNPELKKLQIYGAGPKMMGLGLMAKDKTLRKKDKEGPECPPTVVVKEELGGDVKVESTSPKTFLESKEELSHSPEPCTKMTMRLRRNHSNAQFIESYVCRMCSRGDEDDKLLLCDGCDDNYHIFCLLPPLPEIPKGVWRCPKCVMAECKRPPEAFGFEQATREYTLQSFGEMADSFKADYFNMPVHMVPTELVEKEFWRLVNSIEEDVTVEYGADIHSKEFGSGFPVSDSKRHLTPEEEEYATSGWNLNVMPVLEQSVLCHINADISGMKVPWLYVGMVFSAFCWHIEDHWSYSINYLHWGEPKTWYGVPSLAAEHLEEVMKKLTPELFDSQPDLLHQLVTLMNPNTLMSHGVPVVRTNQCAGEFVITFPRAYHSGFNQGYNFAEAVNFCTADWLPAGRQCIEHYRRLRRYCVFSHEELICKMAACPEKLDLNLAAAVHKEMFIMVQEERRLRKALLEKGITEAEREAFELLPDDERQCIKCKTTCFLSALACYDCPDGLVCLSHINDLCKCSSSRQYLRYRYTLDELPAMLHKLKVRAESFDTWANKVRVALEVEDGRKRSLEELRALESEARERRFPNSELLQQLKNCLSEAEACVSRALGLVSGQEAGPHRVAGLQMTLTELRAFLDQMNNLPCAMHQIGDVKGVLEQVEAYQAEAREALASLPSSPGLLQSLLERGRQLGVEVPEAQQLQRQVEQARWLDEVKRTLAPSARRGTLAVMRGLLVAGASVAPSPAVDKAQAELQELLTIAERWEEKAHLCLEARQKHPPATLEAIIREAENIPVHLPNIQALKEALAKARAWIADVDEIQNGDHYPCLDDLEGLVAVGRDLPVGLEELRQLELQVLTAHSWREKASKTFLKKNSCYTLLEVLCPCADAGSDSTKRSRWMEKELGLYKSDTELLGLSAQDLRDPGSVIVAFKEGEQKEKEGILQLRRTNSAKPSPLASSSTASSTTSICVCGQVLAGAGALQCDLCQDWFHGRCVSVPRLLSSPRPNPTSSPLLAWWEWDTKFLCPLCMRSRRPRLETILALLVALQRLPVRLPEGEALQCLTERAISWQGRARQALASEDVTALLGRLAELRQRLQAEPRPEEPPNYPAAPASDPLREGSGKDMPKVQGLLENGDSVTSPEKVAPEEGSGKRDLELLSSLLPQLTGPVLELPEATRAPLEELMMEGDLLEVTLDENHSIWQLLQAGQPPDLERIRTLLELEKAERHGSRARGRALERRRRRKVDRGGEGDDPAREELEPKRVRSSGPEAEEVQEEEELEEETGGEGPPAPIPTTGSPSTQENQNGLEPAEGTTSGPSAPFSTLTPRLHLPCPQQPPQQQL
T4 sequence (Q9UGL1 whole entry): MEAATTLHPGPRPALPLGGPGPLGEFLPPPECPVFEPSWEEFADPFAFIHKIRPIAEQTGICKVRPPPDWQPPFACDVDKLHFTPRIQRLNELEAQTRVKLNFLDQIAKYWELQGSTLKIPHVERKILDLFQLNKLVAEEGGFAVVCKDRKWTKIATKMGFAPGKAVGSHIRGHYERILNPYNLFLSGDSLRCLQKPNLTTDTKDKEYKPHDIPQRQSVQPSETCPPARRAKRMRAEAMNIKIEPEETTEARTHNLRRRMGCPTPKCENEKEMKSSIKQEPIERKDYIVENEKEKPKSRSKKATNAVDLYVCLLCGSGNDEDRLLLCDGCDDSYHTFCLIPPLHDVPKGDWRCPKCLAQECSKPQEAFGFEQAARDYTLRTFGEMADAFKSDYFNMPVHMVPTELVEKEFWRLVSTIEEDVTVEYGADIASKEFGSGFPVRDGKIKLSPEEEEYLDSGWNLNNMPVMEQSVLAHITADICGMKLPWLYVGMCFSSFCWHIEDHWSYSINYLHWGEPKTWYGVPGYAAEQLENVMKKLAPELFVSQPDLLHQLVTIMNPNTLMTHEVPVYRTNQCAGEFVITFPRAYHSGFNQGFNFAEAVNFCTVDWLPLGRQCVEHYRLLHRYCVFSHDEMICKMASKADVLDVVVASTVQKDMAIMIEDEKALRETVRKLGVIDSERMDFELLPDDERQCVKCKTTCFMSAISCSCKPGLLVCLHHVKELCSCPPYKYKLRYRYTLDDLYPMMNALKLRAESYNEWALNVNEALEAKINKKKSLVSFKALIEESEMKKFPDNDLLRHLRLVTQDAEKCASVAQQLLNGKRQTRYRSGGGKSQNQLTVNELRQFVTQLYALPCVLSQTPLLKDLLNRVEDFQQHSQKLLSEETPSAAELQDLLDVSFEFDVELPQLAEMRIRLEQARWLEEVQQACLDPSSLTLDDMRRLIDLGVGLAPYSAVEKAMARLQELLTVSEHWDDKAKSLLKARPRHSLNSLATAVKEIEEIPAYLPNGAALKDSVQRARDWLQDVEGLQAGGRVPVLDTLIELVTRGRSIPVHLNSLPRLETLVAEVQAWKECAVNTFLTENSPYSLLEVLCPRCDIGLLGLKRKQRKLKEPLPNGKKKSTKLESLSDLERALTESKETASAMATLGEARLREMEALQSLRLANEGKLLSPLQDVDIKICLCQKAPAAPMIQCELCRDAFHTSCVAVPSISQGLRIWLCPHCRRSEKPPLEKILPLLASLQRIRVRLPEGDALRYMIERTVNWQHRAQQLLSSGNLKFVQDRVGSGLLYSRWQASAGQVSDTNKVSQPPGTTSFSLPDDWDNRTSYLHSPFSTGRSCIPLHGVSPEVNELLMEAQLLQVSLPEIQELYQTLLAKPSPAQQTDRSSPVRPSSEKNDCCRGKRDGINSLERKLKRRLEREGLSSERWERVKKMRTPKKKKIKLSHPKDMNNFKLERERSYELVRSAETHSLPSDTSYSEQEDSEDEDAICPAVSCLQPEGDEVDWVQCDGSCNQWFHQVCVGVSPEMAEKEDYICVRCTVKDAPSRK

Molecule: [Cl-].[Na+] [NaCl, sodium chloride]
concentration above which FLAG-KDM5A showed little activity ([2]; salt titration in the demethylation reaction): more than 50 mM

Molecule: Cc1ccc(-n2sc3ccccc3c2=O)cc1 [PBIT, 2-4(4-methylphenyl)-1,2-benzisothiazol-3(2H)-one]
outcome in the KDM5A inhibitor screen [1]: active hits

Molecule: O=C(O)/C=C/c1ccc(O)c(O)c1 [caffeic acid]
outcome in the KDM5A inhibitor screen [1]: active hits

Molecule: N[C@@H](Cc1ccc(O)c(O)c1)C(=O)O [levodopa]
outcome in the KDM5A inhibitor screen [1]: active hits

Molecule: C[C@](N)(Cc1ccc(O)c(O)c1)C(=O)O [methyldopa]
outcome in the KDM5A inhibitor screen [1]: active hits

Molecule: O=C(O)CCC(=O)C(=O)O [α-ketoglutarate]
Km ([2]; listed as α-KG): ~7 µM

Molecule: biotinylated H3K4me3 peptide
average apparent Km of the H3K4me3 peptide: rate of the demethylation reaction over increasing peptide concentrations, product detected by AlphaScreen (24 nM FLAG-KDM5A) [9]: 0.028 µM

Second part, led by results:

outcome in the KDM5A inhibitor screen [1]: active hits
Molecule: O=C(O)c1ccnc(C(=O)O)c1 [2,4-PDCA, 2,4-pyridinedicarboxylic acid]

Km [2]: ~3 µM
Molecule: [Fe+2] [Fe(II)]

mode of inhibition with respect to Fe(II) [2]: uncompetitive with respect to Fe(II)
change of IC50 over a 16-fold range of α-KG concentrations ([2]; 150 nM H3K4me3 peptide, 50 μM Fe(II)): did not change significantly
enzyme inhibition at low Fe(II) ([2]; 5 μM Fe(II)): too weak to generate robust IC50 curves
effect of catalase on inhibitory potency against KDM5A ([2]; 0.01 mg/ml catalase): did not affect
IC50 ([2]; AlphaScreen, 1 hour reaction, 0.05–50 μM compound): 1.32 µM
IC50 [4]: > 50 µM
IC50 ([5]; AlphaScreen): > 50 µM
activity against KDM5B ([5]; at 50 μM): no activity
fold less active against KDM5C (than KDM5A) [6]: ~5 fold
IC50 ([6]; AlphaScreen): 6.56 µM
IC50 [7]: > 50 µM
Molecule: C=CCn1c(S)nnc1CNC(=O)c1cccc(C)c1 [YUKA2, N-[(4-allyl-5-mercapto-4H-1,2,4-triazol-3-yl)methyl]-3-methylbenzamide]
H3K4me3 Fold (H3K4me3/Total H3, normalized to DMSO) ([3]; MCF7, 50 μM): 0.9
H3K4me3 Fold (H3K4me3/Total H3, normalized to DMSO) ([3]; MCF7, 100 μM): 0.8
H3K4me3 Fold (H3K4me3/Total H3, normalized to DMSO) ([8]; 50 μM): 1.6
H3K4me3 Fold (H3K4me3/Total H3, normalized to DMSO) ([8]; 100 μM): 1.7

concentration above which FLAG-KDM5A was sensitive ([2]; titration in the demethylation reaction): above 2 μM
Molecule: [Cl-].[Cl-].[Zn+2] [ZnCl2, Zinc chloride]

outcome in the KDM5A inhibitor screen [1]: active hits
Molecule: C[C@@](Cc1ccc(O)c(O)c1)(NN)C(=O)O [carbidopa]

From article PMC5129982, “Screen-identified selective inhibitor of lysine demethylase 5A blocks cancer cell growth and drug resistance” (Oncotarget, 2016)
